In patent publication US8119626B2, “Oxime derivative and preparations thereof” (Mitsubishi Tanabe Pharma Corporation, priority 2005, dated 2012):

biological target: T1, human-liver type GST-GK (Homo sapiens, UniProt P35557); assay: Glucokinase activation effect (G6PDH-coupled NADPH assay); type: biochemical; settings: 5 mM glucose, 5 mM ATP, 30° C., absorbance 340 nm for 15 minutes, 5% DMSO
T1 construct: made in house; host or cells: E. coli
T1 sequence (P35557 1-466 isoform P35557-2): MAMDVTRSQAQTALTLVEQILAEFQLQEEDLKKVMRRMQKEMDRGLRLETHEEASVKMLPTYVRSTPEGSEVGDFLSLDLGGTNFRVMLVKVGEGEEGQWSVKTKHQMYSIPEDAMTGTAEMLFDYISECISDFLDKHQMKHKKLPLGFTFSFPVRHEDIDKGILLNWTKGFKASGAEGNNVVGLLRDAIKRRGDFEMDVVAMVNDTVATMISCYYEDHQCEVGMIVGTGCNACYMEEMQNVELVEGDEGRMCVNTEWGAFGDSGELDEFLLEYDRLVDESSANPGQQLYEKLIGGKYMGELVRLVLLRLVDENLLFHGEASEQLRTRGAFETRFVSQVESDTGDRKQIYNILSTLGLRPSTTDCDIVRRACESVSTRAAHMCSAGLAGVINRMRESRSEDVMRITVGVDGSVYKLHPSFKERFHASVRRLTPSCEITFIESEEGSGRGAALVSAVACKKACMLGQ
Method: A glucokinase activity was examined by measuring the amount of NADPH obtained in generating 6-phosphogluconic acid from glucose-6-phosphoric acid by a coupling enzyme glucose-6-phosphate dehydrogenase not by measuring directly the produced glucose-6-phosphoric acid. The glucokinase enzyme used in the examination is human-liver type GST-GK expressed in E. Coli. The measurement of GK activity was carried out by the following procedures.
Twenty five mM HEPES buffer (pH7.4) containing 25 mM MgCl2, […], 1 mM DTT, 5 mM NADP (Roche), 16.64 μg/mL G6PDH (Roche 737-232 grade II from yeast) and 2.8 μg/mL GST-GK was prepared as a reaction solution. An evaluating compound dissolved in DMSO was added to the reaction solution to give final concentration of 0.001 to 100 μM (5% DMSO). Thereto was added glucose (final concentration of 5 mM) as a substrate and was added ATP (final concentration of 5 mM), and the reaction was started. The reaction temperature is 30° C. and a generation of NADPH was monitored by changes of absorbance of 340 nm. An increasing in absorbance for 15 minutes from starting reaction was measured and the blank-corrected value was used as GK activity (mOD/min). EC50 level was calculated by a GK activity level in at each concentration of an evaluating compound.

| EC50 [nM] | SMILES |
| --- | --- |
| 1200 | O=C1CN(Cc2cnc(NC(=O)/C(=N/O[C@@H]3CCOC3)c3ccc(S(=O)(=O)C4CC4)cc3)s2)CCN1 [Example 6] |
| 550 | CC(=O)N1CCN(Cc2cnc(NC(=O)/C(=N/O[C@@H]3CCOC3)c3ccc(S(=O)(=O)C4CC4)cc3)s2)C[C@@H]1C [Example 9] |
| 790 | CC(=O)N1CCN(Cc2cnc(NC(=O)/C(=N/O[C@@H]3CCOC3)c3ccc(S(=O)(=O)C4CC4)cc3)s2)CC1 [Example 10] |
| 880 | COCC(=O)N1[C@H](C)CN(Cc2cnc(NC(=O)/C(=N/O[C@@H]3CCOC3)c3ccc(S(=O)(=O)C4CC4)cc3)s2)C[C@@H]1C [Example 11] |
| 170 | CN(C)CCOc1ccc2nc(NC(=O)/C(=N/O[C@@H]3CCOC3)c3ccc(S(=O)(=O)C4CC4)cc3)sc2n1 [Example 13-3] |
| 930 | O=C(Nc1ncc(CN2CCOCC2)s1)/C(=N/O[C@@H]1CCOC1)c1ccc(S(=O)(=O)C2CC2)cc1 [Example 18-2] |
| 84 | COc1ccc2nc(NC(=O)/C(=N/O[C@@H]3CCOC3)c3ccc(S(=O)(=O)C4CC4)cc3)sc2n1 [Example 24-25] |
| 100 | O=C(O)CCSc1cnc(NC(=O)/C(=N/O[C@@H]2CCOC2)c2ccc(S(=O)(=O)C3CC3)cc2)s1 [Example 46-1] |
| 320 | CC(=O)N1CCC(OCc2cnc(NC(=O)/C(=N/O[C@@H]3CCOC3)c3ccc(S(=O)(=O)C4CC4)cc3)s2)CC1 [Example 56] |
| 410 | O=C(Nc1ncc(F)s1)/C(=N/OCc1ncccn1)c1ccc(S(=O)(=O)C2CC2)cc1 [Example 62-5] |
| 270 | Cn1ccc(CO/N=C(/C(=O)Nc2ncc(F)s2)c2ccc(S(=O)(=O)C3CC3)cc2)n1 [Example 62-10] |
| 390 | O=C(Nc1ncc(F)s1)/C(=N/OCCCO)c1ccc(S(=O)(=O)C2CC2)cc1 [Example 67-2] |
| 260 | O=C(Nc1ncc(F)s1)/C(=N/O[C@@H]1CCOC1)c1ccc(S(=O)(=O)N2CCCOCC2)cc1 [Example 82-22] |
| 600 | O=C(Nc1ncc(F)s1)/C(=N/O[C@@H]1CCOC1)c1ccc(S(=O)(=O)NCCF)cc1 [Example 82-78] |
| 410 | Cn1ccnc1CS(=O)(=O)c1ccc(/C(=N\O[C@@H]2CCOC2)C(=O)Nc2ncc(F)s2)cc1 [Example 84-12] |
| 520 | CS(=O)(=O)c1ccc(/C(=N\OC2CCCC2)C(=O)Nc2ncc(C(N)=O)s2)cc1 [Example 91-8] |

| EC50 [nM] | SMILES |
| --- | --- |
| 510 | O=C(Nc1nccs1)/C(=N/OCc1ccccn1)c1ccc(S(=O)(=O)C2CC2)cc1 [Example 94-6] |
| 840 | COCCCS(=O)(=O)c1ccc(/C(=N\O[C@@H]2CCOC2)C(=O)Nc2ncc(COC)s2)cc1 [Example 98-1] |
| 230 | COCCCS(=O)(=O)c1ccc(/C(=N\O[C@@H]2CCOC2)C(=O)Nc2nc3ccc(OCCO)nc3s2)cc1 [Example 98-7] |
| 300 | C[C@@H](CO)O/N=C(/C(=O)Nc1ncc(Cl)s1)c1ccc(S(=O)(=O)C2CC2)cc1 [Example 104-2] |
| 570 | Cc1nsc(NC(=O)/C(=N/O[C@@H]2CC[C@@H](O)C2)c2ccc(S(=O)(=O)C3CC3)cc2)n1 [Example 116] |
| 540 | COc1cnc(NC(=O)/C(=N/O[C@@H]2CC[C@@H](OC)C2)c2ccc(S(=O)(=O)C3CC3)cc2)cn1 [Example 139-41] |
| 350 | CCN(CCO)S(=O)(=O)c1ccc(/C(=N\O[C@@H]2CCOC2)C(=O)Nc2cnc(C3CC3)cn2)cc1 [Example 139-94] |
| 760 | COCCN(C)S(=O)(=O)c1ccc(/C(=N\O[C@@H]2CCOC2)C(=O)Nc2ncc(CN3CCN(C)CC3)s2)cc1 [Example 139-125] |
| 180 | COCCCS(=O)(=O)c1ccc(/C(=N\OCc2ncccn2)C(=O)Nc2nc3ccc(OC)nc3s2)cc1 [Example 139-134] |
| 520 | COCCCS(=O)(=O)c1ccc(/C(=N\OC2CCCC2)C(=O)Nc2ccc(C(N)=O)cn2)cc1 [Example 139-159] |
| 520 | COCCCS(=O)(=O)c1ccc(/C(=N\O[C@@H]2CC[C@@H](O)C2)C(=O)Nc2ncc(C)s2)cc1 [Example 139-182] |
| 570 | COCCCS(=O)(=O)c1ccc(/C(=N\O[C@@H]2CCOC2)C(=O)Nc2nc3ccc(OCCO)cc3s2)cc1 [Example 139-214] |
| 130 | CNc1ccc2nc(NC(=O)/C(=N/O[C@@H]3CCOC3)c3ccc(S(=O)(=O)CCCOC)cc3)sc2n1 [Example 139-221] |
| 600 | CC(=O)N1CCN(Cc2cnc(NC(=O)/C(=N/O[C@@H]3CCOC3)c3ccc(S(=O)(=O)[C@H]4CCOC4)cc3)s2)C[C@H]1C [Example 139-237] |
| 460 | CNCCOc1ccc2nc(NC(=O)/C(=N/O[C@@H]3CCOC3)c3ccc(S(=O)(=O)NCCO)cc3)sc2n1 [Example 139-244] |
